Data from US9629822B2, “Flavonoid based antiviral targets” (UNIVERSITY OF CENTRAL FLORIDA RESEARCH FOUNDATION, INC., priority 2012, dated 2017).
Read-outs that look alike come from different tables or passages of the source.

Key:
[1] = system: mock transfected 293T HEK cells; assay: PathDetect Elk1 luminescence in mock transfected (empty pcDNA3 vector) 293T HEK cells, off-target effect; type: cell-based, human; conditions: Homo sapiens, 10 μM vs 1% DMSO control, Equation 1; read-out: Effect(%) on mock cells with each drug at 10 μM
Description: As a control, the empty pcDNA3 plasmid vector and the components of PathDetect system were also used for mock transfection of 293T HEK cells. Controls containing 1% DMSO were run in parallel. The relative luminescence results found with mock transfected 293T HEK cells treated with 10 μM drug and the untreated 1% DMSO control were compared via the following Equation 1. % Effect on mock cells=(100%×(mock cell luminescence/DMSO control luminescence))−100% Equation (1)
This equation was derived in order to assess the net effect each compound had on non-US28 containing HEK cells transfected via the same protocol. These control experiments were critical as they provided a method to address off target effects such as compound toxicity, which could give rise to false positives in the PathDetect assay.
Compounds, which had no off-target effects, gave nearly identical luminescence values in both the mock cells and the 1% DMSO control (i.e., a mock cell luminescence/DMSO control luminescence ratio of 1) and a net effect of 0% via Equation 1 (e.g., 9j: 0% in Table 1). In contrast, compounds that were stimulatory to the treated HEK cells gave higher mock cell luminescence than the DMSO control, a ratio >1, and a net positive value in Equation 1 for the % effect on mock cells (e.g., 8f: 290%). On the other hand, compounds that were intrinsically toxic gave lower luminescence in the treated mock cells than the DMSO control, a ratio below 1, and a net negative value for the % effect on mock cells (e.g., 8d: ˜42%).
(§1) The efficacy of each compound on the US28 receptor was investigated in luciferase based reporter gene assay PathDetect trans Elk1 (Agilent, Stratagene)^23 as described previously.^13 Briefly, the human embryonic kidney (HEK) 293T cells were transiently-transfected with 0.1 μg Elk1, 5 μg Luc, and 5 μg of US28 vector or empty pcDNA3 vector (mock cells). Five hours after transfection, the cells were washed with DMEM containing 1% FBS, harvested, seeded in a white half-area 96-well plate (20,000 cells/well) and incubated with the indicated concentrations of test compounds. The incubation buffer consisted of DMEM, 1% FBS, 2 mM L-glutamine, 1% penicillin-streptomycin and 1% DMSO. The cells were incubated at 37° C. in the humid atmosphere with 5% CO2 for an additional 20-24 hours. The luciferase substrate BrightGlo (Promega) was used according to the manufacturer's instruction. The luminescence intensity was acquired using microplate reader Victor3V (Perkin-Elmer). The basal luminescence of mock transfected cells was approximately 500 RLU and the basal luminescence of US28-transfected cells was 4-5-fold higher (2000-2500 RLU). As the inhibitors gave differential responses in terms of their ability to reduce US 28 mediated signaling, their relative EC50 values were determined by dosing the US-28 transfected HEK cells with increasing concentrations of each compound. In this case, the EC50 value is the concentration of the compound needed to provoke a response halfway between the compound's maximal response (change in luminescence) and the no-compound control in the same US-28 transfected cell line. A plot of relative luminescence versus log of the compound concentration provided a dose-response curve from which the % efficacy was derived via non-linear regression methods using the algorithms in PRISM 5.0 (GraphPad Software, San Diego, Calif.).

HIV-1 BaL = assay: Anti-HIV assay (luciferase, HIV-1 BaL infection); type: cell-based
Description: Assays were performed below in accordance with the procedures set forth in The Journal of Immunology, 2006, 176, pp. 6900-905; AIDS Research and Human Retroviruses, 2004, 20:11, pp. 1157-1665.^32,33 Cells were treated with 2 ng/mL p24 of HIV-1 BaL administered; MOI approx 0.02 (see refs 32, 33). Cells were treated with 2 ng/mL p24 of HIV-1 BaL administered; MOI approx 0.02 (see refs 32, 33).

US28 receptor = target: T1, US28 receptor (Human cytomegalovirus, UniProt P69332); assay: PathDetect trans Elk1 luciferase reporter gene assay in US28-transfected 293T HEK cells; type: cell-based, Human Cytomegalovirus (HCMV); conditions: for EC50: 293T HEK cells transiently expressing US28, Elk1 reporter; for Emax: read-out: Efficacy(%), maximum intrinsic activity from dose-response curve; for type of activity on the US28 receptor (agonist / inverse agonist / none), in words: Elk1 reporter, US28-transfected HEK cells
T1 construct: expressed in transfected cells; host or cells: HEK 293T cells, transiently transfected
T1 sequence (P69332 whole entry): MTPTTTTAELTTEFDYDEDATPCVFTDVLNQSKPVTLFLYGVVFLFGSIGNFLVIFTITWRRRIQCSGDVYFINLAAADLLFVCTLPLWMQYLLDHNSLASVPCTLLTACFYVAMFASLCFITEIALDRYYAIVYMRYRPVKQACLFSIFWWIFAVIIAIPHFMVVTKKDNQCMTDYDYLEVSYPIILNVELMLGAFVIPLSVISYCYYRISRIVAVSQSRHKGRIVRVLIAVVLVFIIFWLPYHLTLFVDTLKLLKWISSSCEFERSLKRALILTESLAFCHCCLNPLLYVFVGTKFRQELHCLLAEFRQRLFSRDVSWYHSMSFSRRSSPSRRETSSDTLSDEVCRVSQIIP
Text: Having generated a homologous series of chalcones and flavones, their ability to interact with the US28 receptor in human embryonic kidney (HEK) cells was investigated using an Elk-1 gene reporter assay (FIG. 2). HEK cells were transfected with either an empty vector (i.e., mock cells) or with a vector carrying US 28. These matched HEK cells provided a means to evaluate off-target effects as well as innate drug toxicity. As many of the flavonoid drugs were not water-soluble, all drug stock solutions were made in 100% dimethylsulfoxide (DMSO). The final DMSO concentration for each cell-based experiment, however, was 1% DMSO. To account for the presence of DMSO, 1% DMSO controls were run in parallel. […] values of the homologous series were also determined in Chinese hamster ovary (CHO) cells in order to assess the relative toxicities of each member of the series in a different cell line (see Table 1).
Interaction with the US28 receptor was measured by a decrease in luminescence using a firefly (Photinus pyralis) luciferase-based PathDetect Elk1 gene reporter assay (FIG. 2).^23,24 This assay assessed the modulation of US28-mediated activation of mitogen-activated protein kinase (MAPK) signaling pathways (results are shown in Table 1). […] Such compounds which reduce MAPK signaling will have direct utility in the treatment of proliferative disorders including but not limited cancer.
After transfection the US28 is expressed and activates MAPK. The MAPK phosphorylates the activator domain of the GAL4dbd/Elk1 fusion protein, and causes its dimerization. The dimer then binds to the GAL4 UAS region of the reporter gene and allows for luciferase transcription. The luciferase mRNA is then translated and the luciferase protein is detected via luminescence by the use of the Bright-Glo reagent.
as §1

CHO cells = assay: CHO cell toxicity, MTS assay, 48 h; type: cell-based, Chinese hamster; conditions: Cricetulus griseus, CHO, 37° C., MTS reagent, read-out: CHO 48 h IC50 value
Description: In each case, the chalcone system 8 was more toxic than the corresponding ring-closed system, 9.
The CHO assay was conducted to assess the general toxicity of each flavonoid drug. Briefly, cell growth was assayed in sterile 96-well microtiter plates (Costar 3599, Corning, N.Y., USA) in the presence of each drug. Experiments were conducted in triplicate. CHO cells were plated at 10,000 cells/mL. Drug solutions were prepared in 100% DMSO and dosed so that the final DMSO concentration was <1%. For example, 1 μL of drug solution was added to the CHO cells plated in each well in 100 μL of media. Drug additions occurred after an initial overnight incubation of CHO cells in each well. After drug was added, the cells were incubated in 5% CO2 for 48 h at 37° C. The MTS reagent (Promega Cell Titer 96 Aqueous non-radioactive cell proliferation reagent) was added (20 μL) and the CHO cells were incubated for an additional 4h and then absorbance at 490 nm was measured on a BioTek Synergy MX plate reader. […] IC50 values were determined from the corresponding plot of relative absorbance at 490 nm vs drug concentration.

[2] = TZMbI assay for cell safety (cell viability and growth, CytoTox Glo); conditions: human, TZMbI cells, read-out: % decrease in viability compared to 0.1% DMSO vehicle based on viable cell luminescence
Description: Assays were performed below in accordance with the procedures set forth in The Journal of Immunology, 2006, 176, pp. 6900-905; AIDS Research and Human Retroviruses, 2004, 20:11, pp. 1157-1665.^32,33 TZMbI assays for cell safety were performed to identify potential anti-viral compounds. TZMbI assays for cell safety were performed to identify potential anti-viral compounds per the methods.

[3] = 10 μM, Experiment 1B, 2 ng/mL p24 HIV-1 BaL
[4] = Human immunodeficiency virus 1, BAL, 10 μM, Experiment 1B, 2 ng/mL p24 HIV-1 BaL
[5] = EC50 (μM), NE = no effect when tested at 10 μM of compound
[6] = Human immunodeficiency virus 1, BAL, 5 μM, Experiment 2B
[7] = Human immunodeficiency virus 1, BAL, 10 μM, Experiment 2B
[8] = Human immunodeficiency virus 1, BAL, 20 μM, Experiment 2B
[9] = NE = no effect when tested at 10 μM of compound

SMILES	activation at 10 µM [1]	RLU (relative luciferase units) (HIV-1 BaL; [3])	inhibition at 10 µM (HIV-1 BaL; [4])	EC50 (US28 receptor; [5])	Emax (US28 receptor; negative = inverse agonism)	melting point	IC50 (CHO cells)	cytotoxicity at 10 μM ([2]; Experiment 1A)	RLU (relative luciferase units) (HIV-1 BaL; 5 μM, Experiment 2B)	RLU (relative luciferase units) (HIV-1 BaL; 10 μM, Experiment 2B)	RLU (relative luciferase units) (HIV-1 BaL; 20 μM, Experiment 2B)	inhibition at 5 µM (HIV-1 BaL; [6])	inhibition at 10 µM (HIV-1 BaL; [7])	inhibition at 20 µM (HIV-1 BaL; [8])	EC50 (US28 receptor; [9])	cytotoxicity at 5 μM ([2]; Experiment 2A)	cytotoxicity at 10 μM ([2]; Experiment 2A)	cytotoxicity at 20 μM ([2]; Experiment 2A)	type of activity on the US28 receptor (agonist / inverse agonist / none), in words (US28 receptor)	further results
COc1cc(OC)c(/C=C/C(=O)c2ccccc2O)cc1Br [Compound 8e, (E)-3-(5-bromo-2,4-dimethoxyphenyl)-1-(2-hydroxyphenyl)prop-2-en-1-one]	5%	671.4 RLU	29%	4.9 µM	~55%	153 to 157 °C	16.9 ± 1.3 µM	4.1%	–	–	–	–	–	–	–	–	–	–	–	–
COc1cc(Br)cc(-c2oc3ccccc3c(=O)c2O)c1OC [Compound 9d, 2-(5-Bromo-2,3-dimethoxyphenyl)-3-hydroxy-4H-chromen-4-one]	–	452.5 RLU	51.7%	–	–	153 to 158 °C	> 100 µM	-7.3%	10.04 RLU	25.14 RLU	41.25 RLU	-7.87%	-18.6%	-23.7%	> 10 µM	-7.87%	-18.6%	-23.7%	–	RLU (relative luciferase units) (HIV-1 BaL; 40 μM, Experiment 2B): 68.82 RLU; RLU (relative luciferase units) (HIV-1 BaL; 80 μM, Experiment 2B): 59.85 RLU; inhibition at 40 µM (HIV-1 BaL; Human immunodeficiency virus 1, BAL, 40 μM, Experiment 2B): -33.1%; inhibition at 80 µM (HIV-1 BaL; Human immunodeficiency virus 1, BAL, 80 μM, Experiment 2B): -8.38%; cytotoxicity at 40 μM ([2]; 40 μM, Experiment 2A): -33.1%; cytotoxicity at 80 μM ([2]; 80 μM, Experiment 2A): -8.38%
CCOc1ccc(Cl)cc1-c1oc2ccccc2c(=O)c1O [Compound 9i, 2-(5-chloro-2-ethoxyphenyl)-3-hydroxy-4H-chromen-4-one]	–	361.0 RLU	61.4%	–	-41%	156 to 159 °C	> 100 µM	21.8%	204.06 RLU	159.94 RLU	81.12 RLU	26.1%	41.5%	74.6%	–	10.7%	18.7%	21.6%	inhibited US28 activity	RLU (relative luciferase units) (HIV-1 BaL; 1.25 μM, Experiment 2B): 254.23 RLU; RLU (relative luciferase units) (HIV-1 BaL; 2.5 μM, Experiment 2B): 238.44 RLU; inhibition at 1.25 µM (HIV-1 BaL; Human immunodeficiency virus 1, BAL, 1.25 μM, Experiment 2B): 2.53%; inhibition at 2.5 µM (HIV-1 BaL; Human immunodeficiency virus 1, BAL, 2.5 μM, Experiment 2B): 8.25%; EC50 (US28 receptor; pEC50 ± SEM): 0.309 µM; cytotoxicity at 1.25 μM ([2]; 1.25 μM, Experiment 2A): 10.8%; cytotoxicity at 2.5 μM ([2]; 2.5 μM, Experiment 2A): 6.19%
COc1ccc(Br)cc1-c1cc(=O)c2ccccc2o1 [Compound 11d, 2-(5-Bromo-2-methoxyphenyl)-4H-chromen-4-one]	–	576.3 RLU	38.4%	8.1 µM	-55%	161 to 164 °C	> 100 µM	23.6%	–	–	–	–	–	–	–	–	–	–	inverse agonism	Efficacy(%) (US28 receptor; maximum intrinsic activity from dose-response curve, negative = inverse agonism): −55%
COc1ccc(Cl)cc1C1CC(=O)c2ccccc2O1 (stereo not drawn) [Compound 13h, 2-(5-Chloro-2-methoxyphenyl)chroman-4-one]	-14%	–	–	> 10 µM	–	51 to 60 °C	–	–	–	–	–	–	–	–	> 10 µM	–	–	–	did not have any significant effect	–
